Four molecules from US11214578B2, “Urea/carbamates FAAH MAGL or dual FAAH/MAGL inhibitors and uses thereof” (Northeastern University, priority 2014, dated 2022) can be followed below.

The target of data set [1] is T1, Human FAAH (MBPΔTMhFAAH) (Homo sapiens, UniProt O00519).
T1 construct: made in house; host or cells: E. coli (pMALcE4 vector)
T1 sequence (O00519 30-579 limits assumed): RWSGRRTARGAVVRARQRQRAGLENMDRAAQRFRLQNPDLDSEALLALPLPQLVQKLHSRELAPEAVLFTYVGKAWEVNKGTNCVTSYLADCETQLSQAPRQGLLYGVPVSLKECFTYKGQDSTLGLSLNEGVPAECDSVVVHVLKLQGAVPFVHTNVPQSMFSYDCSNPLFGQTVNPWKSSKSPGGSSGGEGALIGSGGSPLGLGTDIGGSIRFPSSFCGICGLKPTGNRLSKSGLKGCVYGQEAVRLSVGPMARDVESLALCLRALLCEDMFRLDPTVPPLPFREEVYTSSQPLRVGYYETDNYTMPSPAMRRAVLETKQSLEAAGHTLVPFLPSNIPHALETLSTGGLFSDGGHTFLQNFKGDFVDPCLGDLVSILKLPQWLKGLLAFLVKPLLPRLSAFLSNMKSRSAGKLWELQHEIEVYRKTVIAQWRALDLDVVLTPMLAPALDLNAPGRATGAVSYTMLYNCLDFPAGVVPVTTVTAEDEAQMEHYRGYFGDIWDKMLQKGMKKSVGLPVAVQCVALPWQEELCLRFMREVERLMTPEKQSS
Kind of data set: Fluorescent assay protocol for hFAAH. The data set is classed as biochemical. The following applies: human FAAH (MBP fusion, ΔTM), procedure as for rFAAH. Summed up: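 MBP-fused ΔTM human FAAH from E. coli, pre-incubated 15 min at 25 °C with compound in 50 mM HEPES, 1 mM EDTA, 0.1% BSA, pH 7.4 (DMSO below 8%). Substrate AAMCA 20 μM (2×Km); fluorescence (ex 360/em 460) at 3 h gave % inhibition vs uninhibited control, triplicate, IC50 fitted.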

For data set [2], the system named is LiCl-induced anticipatory nausea in rats. Kind of data set: Anticipatory nausea studies (LiCl-paired context, gapes). The data set is classed as in vivo, rat. Conditions: for amelioration of LiCl-induced anticipatory nausea: 20 mg/Kg; for Mean number of gapes elicited by a LiCl-paired context: 20 mg/Kg pretreatment, vehicle 22 gapes. An excerpt:
Novel compounds were studied for their ability to ameliorate LiCl-induced anticipatory nausea in rats following the procedures described in Limebeer, C. L. et al Psychopharmacology (2014) 231:603-612. […] Mean number of gapes elicited by a LiCl-paired context in an anticipatory nausea test following pretreatment with a MAGL inhibitor compound 46 and dual FAAH/MAGL inhibitor 52 were 8 and 3 respectively, compared to animals treated with vehicle which show 22 gapes.

Data set [3] can be described thus: Blood brain barrier (BBB) permeability studies. The following applies: brain and plasma; blood-brain distribution, in vivo; read-out: brain/plasma ratio. The text has this: Novel compounds were studied for their abilities to cross the blood brain barrier based on procedures adapted from Cluny, et al (2010), British journal of pharmacology 161: 629; Rahn, et al (2011) Pharmacology biochemistry, and behavior 98: 493; Wood et al (2013) Life sciences 92: 482.

In data set [4] the test system is human prostate cancer PC-3M cells. Put plainly: Xenograft model of advanced prostate cancer. The data set is classed as in vivo, mouse. Conditions: nude mice, PC-3M xenograft, 20 mg/kg daily i.p. for 21 days. Here is the method: Compounds were studied for their abilities to retard tumor growth in mouse xenograft model expressing aggressive human prostate cancer PC-3M cells. Tumors were established in immunodeficient nude mice (Taconic Farms) according to standard protocol and mice were divided in two groups. Mouse in each group was injected intraperitoneally (i.p.) with vehicle or compounds (20 mg/kg daily) for 21 days. Tumor sizes were measured with callipers every 3 days.

The target in data set [5] is T2, ΔTM rat FAAH (Rattus norvegicus, UniProt P97612).
T2 construct: Preparation of Transmembrane Domain-Deleted Rat FAAH (ΔTM rFAAH); made in house; host or cells: E. coli
T2 sequence (P97612 30-579 limits assumed): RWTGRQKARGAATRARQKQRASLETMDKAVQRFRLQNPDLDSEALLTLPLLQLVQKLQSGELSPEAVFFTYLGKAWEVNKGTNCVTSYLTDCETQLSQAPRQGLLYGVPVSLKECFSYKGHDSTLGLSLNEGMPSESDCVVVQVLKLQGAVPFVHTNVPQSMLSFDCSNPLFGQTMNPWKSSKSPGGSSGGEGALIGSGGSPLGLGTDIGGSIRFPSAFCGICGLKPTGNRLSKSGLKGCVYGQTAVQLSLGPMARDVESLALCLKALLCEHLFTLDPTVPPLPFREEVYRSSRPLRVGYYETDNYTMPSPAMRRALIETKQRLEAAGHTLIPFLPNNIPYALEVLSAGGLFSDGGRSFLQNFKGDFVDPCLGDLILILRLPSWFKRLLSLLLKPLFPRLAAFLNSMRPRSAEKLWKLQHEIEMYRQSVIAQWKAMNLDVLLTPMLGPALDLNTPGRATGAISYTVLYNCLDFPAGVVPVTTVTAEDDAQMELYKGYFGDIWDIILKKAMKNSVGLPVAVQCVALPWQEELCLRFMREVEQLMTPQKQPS
Kind of data set: Fluorescent assay protocol for ΔTM rat FAAH (AAMCA substrate). The following applies: 15 min preincubation, read-out: IC50 rFAAH. The class given is biochemical. Put shortly:
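ΔTM rat FAAH (15 μg) was pre-incubated 15 min at 25° C with compound (screening at 1, 10 and 100 μM), then reacted with the fluorigenic substrate AAMCA. Percent inhibition came from fluorescence at 3 h (linear kinetics) relative to no-inhibitor controls, in triplicate.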

The target in data set [6] is T3, Human MAGL (hMAGL) (Homo sapiens, UniProt Q99685).
T3 construct: hexahistidine; made in house; host or cells: E. coli
T3 sequence (Q99685 1-303): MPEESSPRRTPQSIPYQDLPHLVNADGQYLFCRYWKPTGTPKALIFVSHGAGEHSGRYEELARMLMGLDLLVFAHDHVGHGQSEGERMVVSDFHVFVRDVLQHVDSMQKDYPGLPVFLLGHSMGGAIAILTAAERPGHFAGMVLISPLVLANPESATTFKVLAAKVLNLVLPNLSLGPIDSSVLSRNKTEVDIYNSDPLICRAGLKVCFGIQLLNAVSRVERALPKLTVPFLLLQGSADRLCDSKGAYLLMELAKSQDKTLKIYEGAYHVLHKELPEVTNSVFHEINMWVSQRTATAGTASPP
Kind of data set: Fluorescent assay protocol for hMAGL (AHMMCE substrate). The data set is classed as biochemical. The following applies: recombinant human MAGL, AHMMCE substrate, 15 min preincubation; read-out: IC50 hMAGL. Put shortly:
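Hydrolysis of AHMMCE by human MAGL was monitored at 25°C for 120 min, with fluorescence at 360/460 nm recorded every 15 min and converted to 4-methylcoumarin using external standards. IC50 values were derived from triplicate wells at each inhibitor concentration.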

Data set [7] addresses T4, Rat MAGL (rMAGL) (Rattus norvegicus, UniProt Q8R431).
T4 construct: made in house; host or cells: E. coli
T4 sequence (Q8R431 1-303): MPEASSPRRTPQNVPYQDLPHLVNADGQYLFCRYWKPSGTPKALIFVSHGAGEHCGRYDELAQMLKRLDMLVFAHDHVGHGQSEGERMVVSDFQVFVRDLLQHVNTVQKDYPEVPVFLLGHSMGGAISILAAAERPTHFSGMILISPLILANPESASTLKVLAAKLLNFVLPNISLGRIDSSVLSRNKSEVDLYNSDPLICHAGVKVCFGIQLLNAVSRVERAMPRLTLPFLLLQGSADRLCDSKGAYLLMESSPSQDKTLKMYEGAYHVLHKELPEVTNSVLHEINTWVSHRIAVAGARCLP
Kind of data set: Fluorescent assay protocol for rMAGL. The data set is classed as biochemical. Conditions: recombinant rat MAGL, procedure as for hMAGL; read-out: IC50 rMAGL. Summed up: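 Rat MAGL run as for the human enzyme: AHMMCE substrate hydrolysis to fluorescent coumarin followed at 25° C. for 120 min, read every 15 min at 360/460 nm.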

The IC50 is the midpoint of a concentration-inhibition curve.

As for `N#Cc1cccc(OC(=O)N2CCC(Cc3ccccc3)CC2)c1` [Example 52, 3-cyanophenyl 4-benzylpiperidine-1-carboxylate], the IC50 in data set [1] was in the range of 10 to 100 nM. Besides, in data set [2], the “amelioration of LiCl-induced anticipatory nausea” value is reported as “ameliorated anticipatory nausea” and the “Mean number of gapes elicited by a LiCl-paired context” value was 3. Further, the Kp in data set [3] amounted to 0.71.

As to `N#Cc1cccc(OC(=O)N2CCC(C(c3ccccc3)c3ccccc3)CC2)c1` [Example 46, 3-Cyanophenyl 4-benzhydrylpiperidine-1-carboxylate], the “reduction in tumor sizes” value in data set [4] (compared to vehicle) turned out to be 43%. For the same molecule, the tumor sizes in data set [4] (vehicle 185 mm^3) is on record as 105 mm^3. Besides, in data set [5], the IC50 lay in the range of 10 to 100 nM. In data set [1], the IC50 was 10 to 100 nM. Moreover, in data set [2], the “amelioration of LiCl-induced anticipatory nausea” value was “ameliorated anticipatory nausea” and the “Mean number of gapes elicited by a LiCl-paired context” value turned out to be 8.

Take `NC(=O)c1cccc(-c2cccc(NC(=O)N3CCC(c4ccccc4)CC3)c2)c1` [Example 7, N-(3′-carbamoyl-[1,1′-biphenyl]-3-yl)-4-phenylpiperidine-1-carboxamide]: the IC50 is above 1000 nM in data set [6], above 1000 nM in data set [7], 10 to 100 nM in data set [5] and 10 to 100 nM in data set [1]. For the same molecule, the Kp in data set [3] was found to be 0.17.

Regarding `C[C@H]1CN(C(=O)Nc2cccc(-c3cccc(C(N)=O)c3)c2)CCN1Cc1ccc2ccccc2n1` [Example 1, (S)—N-(3′-carbamoyl-[1,1′-biphenyl]-3-yl)-3-methyl-4-(quinolin-2-ylmethyl) piperazine-1-carboxamide], the IC50 is above 1000 nM in data set [6], above 1000 nM in data set [7], 10 to 100 nM in data set [5] and 10 to 100 nM in data set [1]. Besides, in data set [3], the Kp is 0.03.
